System: Caco-2 cells
Assay: Caco-2 permeability
Format: in vitro ADME
Settings: bidirectional Caco-2 assay; values >/=1.0 indicate active cellular efflux
Experimental: (iii) Caco-2 Permeability
Caco-2 cells were seeded onto Millipore Multiscreen plates at 1×10^5 cells/cm^2, and were cultured for 20 days. Assessment of compound permeability was subsequently conducted. The compounds were applied to the apical surface (A) of cell monolayers and compound permeation into the basolateral (B) compartment was measured. This was performed in the reverse direction (B−A) to investigate active transport. A permeability coefficient value, Papp, for each compound, a measure of the rate of permeation of the compound across the membrane, was calculated. Compounds were grouped into low (Papp</=[…]) or high (Papp>/=[…]) absorption potential based on comparison with control compounds with established human absorption.
For assessment of a compound's ability to undergo active efflux, the ratio of basolateral (B) to apical (A) transport compared with A to B was determined. Values of B−A/A−B>/=1.0 indicated the occurrence of active cellular efflux. All of the compounds tested through the Caco-2 permeability screen had Papp values>/=1.0×10^6 cm/s.

For `CN1CCN(Cc2cc3nc(-c4cccc(O)c4)nc(N4CCOCC4)c3s2)CC1` [PI540], the “B−A/A−B asymmetry index” value was “less than 1.0”.

From patent publication US7872003B2, “Pharmaceutical compounds” (F. Hoffmann-La Roche AG, priority 2005, dated 2011)
